EC50 and IC50 data for 14 molecules are collected here from patent US8598157B2, “5-alkynyl-pyridines” (Boehringer Ingelheim International GmbH, priority 2011, dated 2013).

The test system of one assay is MCF7 cells. Nature of the assay: alamarBlue MCF7 cell assay (antiproliferative/cytotoxicity). It counts as cell-based. As to conditions: MCF7 human breast cancer cell line. Summed up:
(§1)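 Seed cells, incubate overnight 37 °C CO2; add cpds (final 10 μM, 1:3 serial, 10 steps, duplicates); incubate 5-6 d; alamarBlue 8 h 37 °C; fluorescence ex 530-560/em 590 nm; blank-subtracted EC50.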
On the technique in general: Resazurin is reduced to fluorescent resorufin, in cell work by metabolically active cells.

For another assay, the system named is U87 cells. Nature of the assay: U87 cell assay (antiproliferative/cytotoxicity). It counts as cell-based. Particulars: U-87MG human glioblastoma cells. The method, boiled down: as §1
A further assay deals with H460 cells. Nature of the assay: alamarBlue H460 cell assay (antiproliferative/cytotoxicity). The format is cell-based. As to conditions: NCI-H460; H460 human lung carcinoma cells. The method, boiled down:
as §1

The next assay relates to MB453 cells. Nature of the assay: alamarBlue MB453 cell assay (antiproliferative/cytotoxicity). The format is cell-based. As to conditions: Homo sapiens; MDA MB 453 breast cancer cell line. Summed up:
as §1

Another assay has as its system BT474 cells. The assay is described as follows: alamarBlue BT474 cell assay (antiproliferative/cytotoxicity). As to conditions: BT-474 human breast cancer cell line. It counts as cell-based. The method, boiled down: as §1
A further assay has as its target PI3Kalpha (Homo sapiens (Human), UniProt P42336). Nature of the assay: Inhibition of PI3Kalpha-induced PIP-2 phosphorylation (filter-binding assay). Particulars: 33P-ATP, p85alpha/His-p110alpha, read-out: IC50 PI3Kα. The format is biochemical. The method, boiled down:
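Radiometric filter-binding assay: PI3Kα (25 ng/well) preincubated 20 min at room temperature with compound and PIP2-containing lipid vesicles plus phosphotyrosine PDGFRβ peptide. Reaction started with cold ATP (1 μM final) and [33P]-ATP and run 120 min at room temperature; filter-captured radioactivity counted, IC50 from duplicate dilution series.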

SMILES strings stand for the structures.

PI3Kalpha, sequence (P42336 whole entry): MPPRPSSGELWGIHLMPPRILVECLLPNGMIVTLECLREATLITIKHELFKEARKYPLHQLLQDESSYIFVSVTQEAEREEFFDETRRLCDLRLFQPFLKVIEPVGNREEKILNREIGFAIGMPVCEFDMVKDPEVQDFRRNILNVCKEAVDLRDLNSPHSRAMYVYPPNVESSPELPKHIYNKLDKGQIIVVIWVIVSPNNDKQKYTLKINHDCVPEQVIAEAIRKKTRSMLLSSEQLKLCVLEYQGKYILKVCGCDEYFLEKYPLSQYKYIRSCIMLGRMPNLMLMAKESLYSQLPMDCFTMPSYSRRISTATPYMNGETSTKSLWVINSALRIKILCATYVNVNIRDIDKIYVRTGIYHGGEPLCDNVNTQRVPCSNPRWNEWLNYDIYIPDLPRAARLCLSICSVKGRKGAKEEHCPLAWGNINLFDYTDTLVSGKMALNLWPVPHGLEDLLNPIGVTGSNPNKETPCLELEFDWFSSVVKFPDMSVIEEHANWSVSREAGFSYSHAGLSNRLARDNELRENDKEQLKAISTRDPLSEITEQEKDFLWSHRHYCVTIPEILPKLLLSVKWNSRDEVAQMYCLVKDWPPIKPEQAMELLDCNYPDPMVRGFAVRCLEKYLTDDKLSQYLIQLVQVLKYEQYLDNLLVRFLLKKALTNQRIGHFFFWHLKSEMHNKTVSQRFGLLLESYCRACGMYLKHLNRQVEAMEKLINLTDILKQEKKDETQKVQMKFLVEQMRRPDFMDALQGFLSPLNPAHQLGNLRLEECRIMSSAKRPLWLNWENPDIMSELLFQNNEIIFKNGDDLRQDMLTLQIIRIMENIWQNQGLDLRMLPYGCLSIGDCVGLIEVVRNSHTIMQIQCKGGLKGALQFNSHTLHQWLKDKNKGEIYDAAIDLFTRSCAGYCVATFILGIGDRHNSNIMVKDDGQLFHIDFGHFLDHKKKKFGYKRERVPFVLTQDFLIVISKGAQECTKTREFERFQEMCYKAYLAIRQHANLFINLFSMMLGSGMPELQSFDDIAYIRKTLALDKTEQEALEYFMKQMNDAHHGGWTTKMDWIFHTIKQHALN

As usually defined, the EC50 is the concentration giving half of the maximal effect. High values mean a need for much substance, low ones an effect from little substance. What is called IC50 is the concentration that inhibits the measured activity by half. For the molecule `COc1ncc(C#Cc2c(C)ncnc2N2CCOCC2)cc1NS(=O)(=O)c1ccccc1` [Example I-1, N-[2-Methoxy-5-(4-methyl-6-morpholin-4-yl-pyrimidin-5-ylethynyl)-pyridin-3-yl]-benzenesulfonamide], the EC50 was found to be 4 nM in the assay on MCF7 cells; 55 nM with U87 cells; 19 nM with H460 cells; 47 nM in the assay with MB453 cells; 14 nM with BT474 cells. In addition, the IC50 on PI3Kalpha was 0.4 nM.
As for `CCc1ncnc(N2CCN(C(C)=O)CC2)c1C#Cc1cnc(C)c(NS(=O)(=O)c2ccc(F)cc2)c1` [Example I-68, N-{5-[4-(4-Acetyl-piperazin-1-yl)-6-ethyl-pyrimidin-5-ylethynyl]-2-methyl-pyridin-3-yl}-4-fluoro-benzenesulfonamide], the half-maximal effective concentration (EC50) came to 36 nM with MCF7 cells; 545 nM in the assay with U87 cells; 542 nM with H460 cells; 116 nM in the assay with MB453 cells; 117 nM in the assay with BT474 cells. On PI3Kalpha, the IC50 was found to be 0.47 nM.
Take `Cc1ncc(C#Cc2c(C)ncnc2N2CCOCC2)cc1NS(=O)(=O)c1cccs1` [Example I-10, Thiophene-2-sulfonic acid [2-methyl-5-(4-methyl-6-morpholin-4-yl-pyrimidin-5-ylethynyl)-pyridin-3-yl]-amide]: the EC50 was 67 nM with MCF7 cells; 126 nM in the assay with U87 cells; 42 nM with H460 cells; 113 nM in the assay with MB453 cells; 116 nM with BT474 cells. Further, the IC50 at PI3Kalpha came to 0.72 nM.
`Cc1ncc(C#Cc2c(C)ncnc2N2CCN(C)CC2)cc1NS(=O)(=O)c1ccc(F)cc1F` [Example I-18, 2,4-Difluoro-N-{2-methyl-5-[4-methyl-6-(4-methyl-piperazin-1-yl)-pyrimidin-5-ylethynyl]-pyridin-3-yl}-benzenesulfonamide]: the EC50 worked out at 72 nM in the assay on MCF7 cells; 358 nM with U87 cells; 269 nM in the assay with H460 cells; 418 nM in the assay on MB453 cells; 221 nM in the assay on BT474 cells. Further, the IC50 on PI3Kalpha was found to be 1 nM.
For `COCCS(=O)(=O)Nc1cc(C#Cc2c(C)ncnc2N2CCOCC2)cnc1C` [Example I-12, 2-Methoxy-ethanesulfonic acid [2-methyl-5-(4-methyl-6-morpholin-4-yl-pyrimidin-5-ylethynyl)-pyridin-3-yl]-amide], the EC50 in the assay with MCF7 cells was 464 nM; with U87 cells, 1290 nM; in the assay with H460 cells, 486 nM; in the assay on MB453 cells, 839 nM; in the assay with BT474 cells, 684 nM. Also, on PI3Kalpha, the IC50 worked out at 4 nM.
Consider `Cc1ncc(C#Cc2c(C)ncnc2N2CCOCC2)cc1NS(C)(=O)=O` [Example I-37, N-[2-Methyl-5-(4-methyl-6-morpholin-4-yl-pyrimidin-5-ylethynyl)-pyridin-3-yl]-methanesulfonamide], for which the EC50 in the assay with MCF7 cells turned out to be 134 nM; in the assay with U87 cells it was 966 nM; with H460 cells it was 903 nM; with MB453 cells it was 318 nM; in the assay with BT474 cells, 416 nM. On PI3Kalpha, the half-inhibitory concentration (IC50) was found to be 1 nM.
Consider `Cc1ncc(C#Cc2c(C)ncnc2N2CCCCC2)cc1NS(=O)(=O)c1ccccc1` [Example I-63, N-[2-Methyl-5-(4-methyl-6-piperidin-1-yl-pyrimidin-5-ylethynyl)-pyridin-3-yl]-benzenesulfonamide], for which the EC50 in the assay with MCF7 cells was 126 nM; in the assay on U87 cells, 1300 nM; with H460 cells, 308 nM; with MB453 cells it was 1330 nM; with BT474 cells, 4320 nM. Besides, the IC50 at PI3Kalpha stood at 3 nM.
For `Cc1ncc(C#Cc2c(C)ncnc2N2CCOCC2)cc1NS(=O)(=O)c1c(C)noc1C` [Example I-53, 3,5-Dimethyl-isoxazole-4-sulfonic acid [2-methyl-5-(4-methyl-6-morpholin-4-yl-pyrimidin-5-ylethynyl)-pyridin-3-yl]-amide], the EC50 amounted to 135 nM with MCF7 cells; 1280 nM in the assay with U87 cells; 793 nM with H460 cells; 915 nM in the assay with MB453 cells; 884 nM in the assay on BT474 cells. At PI3Kalpha, the IC50 was 2 nM.
As for `CCc1ncnc(N2CCN(S(C)(=O)=O)CC2)c1C#Cc1cnc(C)c(NS(=O)(=O)c2ccc(F)cc2)c1` [Example I-67, N-{5-[4-Ethyl-6-(4-methanesulfonyl-piperazin-l-yl)-pyrimidin-5-ylethynyl]-2-methyl-pyridin-3-yl}-4-fluoro-benzenesulfonamide], the EC50 is 9 nM in the assay on MCF7 cells; 471 nM with U87 cells; 37 nM in the assay with H460 cells; 54 nM in the assay on MB453 cells; 44 nM in the assay with BT474 cells. At PI3Kalpha, the IC50 worked out at 0.14 nM.
With `Cc1ncc(C#Cc2c(C)ncnc2N2CCOCC2)cc1NS(=O)(=O)c1cccc(F)c1` [Example I-6, 3-Fluoro-N-[2-methyl-5-(4-methyl-6-morpholin-4-yl-pyrimidin-5-ylethynyl)-pyridin-3-yl]-benzenesulfonamide], the EC50 with MCF7 cells stood at 75 nM; with U87 cells it was 368 nM; in the assay with H460 cells, 130 nM; in the assay on MB453 cells, 259 nM; with BT474 cells, 194 nM. In addition, the IC50 on PI3Kalpha amounted to 1 nM.
As for `Cc1ncnc(N2CCOCC2)c1C#Cc1cncc(NS(=O)(=O)c2cccs2)c1` [Example I-21, Thiophene-2-sulfonic acid [5-(4-methyl-6-morpholin-4-yl-pyrimidin-5-ylethynyl)-pyridin-3-yl]-amide], the EC50 came out at 40 nM in the assay with MCF7 cells; 340 nM in the assay with U87 cells; 357 nM in the assay on H460 cells; 155 nM in the assay on MB453 cells; 196 nM in the assay with BT474 cells. At PI3Kalpha, the IC50 is 0.53 nM.
As to `Cc1ncc(C#Cc2c(C)ncnc2N2CCOCC2)cc1NS(=O)(=O)c1cn(C)c(C)n1` [Example I-55, 1,2-Dimethyl-1H-imidazole-4-sulfonic acid [2-methyl-5-(4-methyl-6-morpholin-4-yl-pyrimidin-5-ylethynyl)-pyridin-3-yl]-amide], the EC50 was 208 nM in the assay on MCF7 cells; 1980 nM with U87 cells; 1180 nM in the assay with H460 cells; 1680 nM in the assay on MB453 cells; 1550 nM in the assay on BT474 cells. Besides, at PI3Kalpha, the IC50 came to 1 nM.
With `CCc1ncnc(N2CCN(C3CC3)CC2)c1C#Cc1cnc(C)c(NS(=O)(=O)c2ccc(F)cc2)c1` [Example I-28, N-{5-[4-(4-Cyclopropyl-piperazin-1-yl)-6-ethyl-pyrimidin-5-ylethynyl]-2-methyl-pyridin-3-yl}-4-fluoro-benzenesulfonamide], the concentration giving a half-maximal response (EC50) in the assay with MCF7 cells came out at 10000 nM; in the assay with U87 cells, 14400 nM; in the assay on H460 cells it was 756 nM; in the assay on MB453 cells, 1850 nM; with BT474 cells, 10000 nM. For the same molecule, the IC50 at PI3Kalpha was found to be 5 nM.
Take `Cc1cc(S(=O)(=O)Nc2cc(C#Cc3c(C)ncnc3N3CCOCC3)cnc2C)c(C)s1` [Example I-48, 2,5-Dimethyl-thiophene-3-sulfonic acid [2-methyl-5-(4-methyl-6-morpholin-4-yl-pyrimidin-5-ylethynyl)-pyridin-3-yl]-amide]: the EC50 in the assay on MCF7 cells turned out to be 14 nM; with U87 cells, 341 nM; in the assay with H460 cells, 100 nM; in the assay with MB453 cells, 533 nM; in the assay with BT474 cells, 754 nM. Moreover, the IC50 on PI3Kalpha was determined as 0.55 nM.
